From patent US7795290B2 (Genentech, Inc., priority 2004, dated 2010)

What was measured:
Experiment in all cases: HTS ATP-utilizing enzyme assay, off-chip mobility-shift (Caliper HTS 250)
Assay type in all cases: biochemical
Conditions in all cases: kinase named = inhibitory activity/selectivity; test compound 10 μM; active = greater than three-sigma from mean
CDK2 = CDK2 (Homo sapiens, UniProt P24941)
Method in brief: (§1)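 Single-point screen at 10 µM compound: kinase reactions ran 2.5 h at 20–22 °C and were stopped with termination buffer. Inhibition was read as the substrate-to-phosphopeptide ratio by microfluidic mobility shift, with EDTA and DMSO wells as controls. Hits were called by three-sigma limits.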

AKT1 = molecular target: T1, AKT1 (Homo sapiens, UniProt P31749)
T1 construct: purchased Upstate 14-276
T1 sequence (P31749 whole entry): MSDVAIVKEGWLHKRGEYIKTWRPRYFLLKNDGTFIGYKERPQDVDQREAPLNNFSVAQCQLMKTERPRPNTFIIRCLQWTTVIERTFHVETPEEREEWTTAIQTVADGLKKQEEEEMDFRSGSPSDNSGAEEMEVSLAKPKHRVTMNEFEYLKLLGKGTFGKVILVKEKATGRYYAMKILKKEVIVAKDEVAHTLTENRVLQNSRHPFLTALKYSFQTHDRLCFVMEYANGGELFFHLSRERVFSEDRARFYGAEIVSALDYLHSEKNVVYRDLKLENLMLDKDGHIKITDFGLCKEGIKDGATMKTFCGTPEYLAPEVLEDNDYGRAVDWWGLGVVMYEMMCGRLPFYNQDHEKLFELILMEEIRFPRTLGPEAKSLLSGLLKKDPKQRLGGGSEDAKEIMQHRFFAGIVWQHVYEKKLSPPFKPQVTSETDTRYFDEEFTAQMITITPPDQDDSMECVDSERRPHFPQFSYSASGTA
Method in brief: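 AKT1 activity was measured by off-chip mobility shift (Caliper HTS 250) as the ratio of peptide substrate to phosphorylated product. Test compound was at 10 μM, with 2.5 h incubation at 20–22° C. EDTA wells served as 100% control and DMSO wells as 0%. Hits were called at three-sigma limits.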

INSR = INSR (Homo sapiens, UniProt P06213)
INSR, sequence (P06213 28-1382): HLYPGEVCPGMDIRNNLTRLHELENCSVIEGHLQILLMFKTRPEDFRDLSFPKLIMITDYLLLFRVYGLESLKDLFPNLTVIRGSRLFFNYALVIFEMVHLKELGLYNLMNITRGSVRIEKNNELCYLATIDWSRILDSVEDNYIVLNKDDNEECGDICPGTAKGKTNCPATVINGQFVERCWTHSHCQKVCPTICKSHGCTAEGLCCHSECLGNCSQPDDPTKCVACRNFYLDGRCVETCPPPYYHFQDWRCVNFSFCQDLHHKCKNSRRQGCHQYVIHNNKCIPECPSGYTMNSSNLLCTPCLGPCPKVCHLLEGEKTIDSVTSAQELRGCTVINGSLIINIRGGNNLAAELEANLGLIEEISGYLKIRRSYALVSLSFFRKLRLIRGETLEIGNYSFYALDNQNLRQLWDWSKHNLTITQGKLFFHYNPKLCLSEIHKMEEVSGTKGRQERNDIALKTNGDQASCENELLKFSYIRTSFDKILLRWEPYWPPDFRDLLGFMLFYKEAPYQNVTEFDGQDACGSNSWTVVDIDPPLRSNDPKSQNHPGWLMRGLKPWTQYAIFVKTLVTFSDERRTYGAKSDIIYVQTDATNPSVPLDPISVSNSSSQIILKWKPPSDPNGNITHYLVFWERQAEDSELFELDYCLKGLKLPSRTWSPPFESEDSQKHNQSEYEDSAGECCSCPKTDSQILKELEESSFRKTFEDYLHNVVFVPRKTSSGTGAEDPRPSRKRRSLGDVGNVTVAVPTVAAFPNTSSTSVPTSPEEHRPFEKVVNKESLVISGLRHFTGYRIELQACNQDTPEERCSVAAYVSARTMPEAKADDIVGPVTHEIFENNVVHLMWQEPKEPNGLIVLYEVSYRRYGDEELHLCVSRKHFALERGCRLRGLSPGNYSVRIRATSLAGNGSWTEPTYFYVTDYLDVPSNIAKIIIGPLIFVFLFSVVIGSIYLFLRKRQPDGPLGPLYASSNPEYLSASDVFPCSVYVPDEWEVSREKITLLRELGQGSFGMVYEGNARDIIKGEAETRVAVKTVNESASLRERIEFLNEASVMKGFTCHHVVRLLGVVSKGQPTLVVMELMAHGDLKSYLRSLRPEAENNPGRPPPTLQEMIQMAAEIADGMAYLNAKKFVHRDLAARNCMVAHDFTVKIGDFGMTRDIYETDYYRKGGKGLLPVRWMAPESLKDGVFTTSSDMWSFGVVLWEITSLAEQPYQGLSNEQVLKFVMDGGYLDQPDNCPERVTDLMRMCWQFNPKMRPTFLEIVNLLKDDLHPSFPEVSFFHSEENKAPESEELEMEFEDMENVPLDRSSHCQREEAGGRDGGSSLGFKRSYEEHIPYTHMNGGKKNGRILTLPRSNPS
Method in brief: as §1

SYK = SYK (Homo sapiens, UniProt P43405)
Method in brief: as §1

MAPKAPK-2 = MAPKAPK-2 (Homo sapiens, UniProt P49137)
MAPKAPK-2, sequence (P49137 whole entry): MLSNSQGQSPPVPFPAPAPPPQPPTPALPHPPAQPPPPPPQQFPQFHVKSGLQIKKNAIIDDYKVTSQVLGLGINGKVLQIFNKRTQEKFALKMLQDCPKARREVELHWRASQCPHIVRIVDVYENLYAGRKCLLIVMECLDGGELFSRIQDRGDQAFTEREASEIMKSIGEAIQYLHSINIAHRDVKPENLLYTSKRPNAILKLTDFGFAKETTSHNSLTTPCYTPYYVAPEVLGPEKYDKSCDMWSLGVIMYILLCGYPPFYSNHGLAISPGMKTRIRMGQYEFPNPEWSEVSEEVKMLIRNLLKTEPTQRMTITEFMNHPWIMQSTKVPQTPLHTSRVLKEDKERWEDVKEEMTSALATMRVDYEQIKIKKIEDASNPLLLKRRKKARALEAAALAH
Method in brief: as §1

CHEK2 = CHEK2 (Homo sapiens, UniProt O96017)
CHEK2, sequence (O96017 whole entry): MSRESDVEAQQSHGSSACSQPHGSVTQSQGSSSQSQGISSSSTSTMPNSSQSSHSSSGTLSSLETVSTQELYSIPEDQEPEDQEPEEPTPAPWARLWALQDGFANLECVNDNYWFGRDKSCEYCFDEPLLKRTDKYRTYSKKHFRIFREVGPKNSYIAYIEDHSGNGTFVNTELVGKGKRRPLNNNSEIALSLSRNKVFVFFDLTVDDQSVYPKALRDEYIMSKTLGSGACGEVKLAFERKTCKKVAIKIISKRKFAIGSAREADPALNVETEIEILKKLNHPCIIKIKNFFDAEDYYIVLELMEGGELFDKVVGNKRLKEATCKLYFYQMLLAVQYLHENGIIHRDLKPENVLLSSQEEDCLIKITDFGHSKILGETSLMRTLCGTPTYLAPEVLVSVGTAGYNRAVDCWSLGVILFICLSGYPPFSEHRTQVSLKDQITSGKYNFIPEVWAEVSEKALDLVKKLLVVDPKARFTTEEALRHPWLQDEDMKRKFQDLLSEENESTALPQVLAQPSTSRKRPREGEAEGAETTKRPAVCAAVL
Method in brief: as §1

FLT-3 = molecular target: T2, FLT-3 (Homo sapiens, UniProt P36888)
T2 sequence (P36888 27-993): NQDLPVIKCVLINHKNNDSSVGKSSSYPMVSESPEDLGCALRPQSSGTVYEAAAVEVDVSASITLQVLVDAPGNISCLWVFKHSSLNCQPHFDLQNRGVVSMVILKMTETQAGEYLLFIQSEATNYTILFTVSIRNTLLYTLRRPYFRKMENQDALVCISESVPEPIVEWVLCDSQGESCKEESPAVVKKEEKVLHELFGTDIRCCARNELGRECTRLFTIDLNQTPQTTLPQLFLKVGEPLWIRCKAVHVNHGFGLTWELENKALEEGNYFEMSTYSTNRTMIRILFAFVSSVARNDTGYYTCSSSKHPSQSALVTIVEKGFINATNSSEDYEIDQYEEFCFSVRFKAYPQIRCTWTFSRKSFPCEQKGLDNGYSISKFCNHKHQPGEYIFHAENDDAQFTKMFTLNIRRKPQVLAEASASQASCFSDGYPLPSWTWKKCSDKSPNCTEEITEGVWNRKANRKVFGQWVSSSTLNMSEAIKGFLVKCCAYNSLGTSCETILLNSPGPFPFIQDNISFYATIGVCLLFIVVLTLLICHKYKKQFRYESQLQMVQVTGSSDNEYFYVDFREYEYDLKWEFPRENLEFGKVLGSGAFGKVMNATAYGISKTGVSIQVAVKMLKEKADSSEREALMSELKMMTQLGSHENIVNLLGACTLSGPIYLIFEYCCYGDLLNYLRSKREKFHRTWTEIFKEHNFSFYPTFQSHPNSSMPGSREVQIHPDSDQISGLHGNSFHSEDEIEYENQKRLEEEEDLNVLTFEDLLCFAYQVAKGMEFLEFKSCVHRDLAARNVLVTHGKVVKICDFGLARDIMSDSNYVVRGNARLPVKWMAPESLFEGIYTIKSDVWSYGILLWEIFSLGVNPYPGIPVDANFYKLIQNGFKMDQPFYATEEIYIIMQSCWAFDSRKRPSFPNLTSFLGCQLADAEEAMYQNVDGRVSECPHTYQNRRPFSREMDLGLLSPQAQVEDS
Method in brief: as §1

PDK1 = molecular target: T3, PDK1 (Homo sapiens, UniProt O15530)
T3 sequence (O15530 1-556): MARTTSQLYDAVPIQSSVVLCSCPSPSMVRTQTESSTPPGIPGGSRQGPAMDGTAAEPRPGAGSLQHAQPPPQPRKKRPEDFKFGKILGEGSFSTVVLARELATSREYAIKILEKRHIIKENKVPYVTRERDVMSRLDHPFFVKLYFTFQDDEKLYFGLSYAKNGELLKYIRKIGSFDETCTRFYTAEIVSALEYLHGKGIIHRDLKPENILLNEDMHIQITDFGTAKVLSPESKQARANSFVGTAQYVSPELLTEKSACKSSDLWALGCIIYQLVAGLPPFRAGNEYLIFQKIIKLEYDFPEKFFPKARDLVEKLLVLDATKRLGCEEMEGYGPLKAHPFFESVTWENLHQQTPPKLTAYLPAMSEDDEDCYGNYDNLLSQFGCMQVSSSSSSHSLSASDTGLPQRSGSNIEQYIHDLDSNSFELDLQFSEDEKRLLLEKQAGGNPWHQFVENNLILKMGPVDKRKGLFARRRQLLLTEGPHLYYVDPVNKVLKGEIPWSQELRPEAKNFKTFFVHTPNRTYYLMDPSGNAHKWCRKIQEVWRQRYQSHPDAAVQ
Method in brief: as §1

CDK2/cyclin E = CDK2/cyclin E (Homo sapiens, UniProt P24941)
Method in brief: as §1

KIT = KIT (Homo sapiens, UniProt P10721)
KIT, sequence (P10721 26-976): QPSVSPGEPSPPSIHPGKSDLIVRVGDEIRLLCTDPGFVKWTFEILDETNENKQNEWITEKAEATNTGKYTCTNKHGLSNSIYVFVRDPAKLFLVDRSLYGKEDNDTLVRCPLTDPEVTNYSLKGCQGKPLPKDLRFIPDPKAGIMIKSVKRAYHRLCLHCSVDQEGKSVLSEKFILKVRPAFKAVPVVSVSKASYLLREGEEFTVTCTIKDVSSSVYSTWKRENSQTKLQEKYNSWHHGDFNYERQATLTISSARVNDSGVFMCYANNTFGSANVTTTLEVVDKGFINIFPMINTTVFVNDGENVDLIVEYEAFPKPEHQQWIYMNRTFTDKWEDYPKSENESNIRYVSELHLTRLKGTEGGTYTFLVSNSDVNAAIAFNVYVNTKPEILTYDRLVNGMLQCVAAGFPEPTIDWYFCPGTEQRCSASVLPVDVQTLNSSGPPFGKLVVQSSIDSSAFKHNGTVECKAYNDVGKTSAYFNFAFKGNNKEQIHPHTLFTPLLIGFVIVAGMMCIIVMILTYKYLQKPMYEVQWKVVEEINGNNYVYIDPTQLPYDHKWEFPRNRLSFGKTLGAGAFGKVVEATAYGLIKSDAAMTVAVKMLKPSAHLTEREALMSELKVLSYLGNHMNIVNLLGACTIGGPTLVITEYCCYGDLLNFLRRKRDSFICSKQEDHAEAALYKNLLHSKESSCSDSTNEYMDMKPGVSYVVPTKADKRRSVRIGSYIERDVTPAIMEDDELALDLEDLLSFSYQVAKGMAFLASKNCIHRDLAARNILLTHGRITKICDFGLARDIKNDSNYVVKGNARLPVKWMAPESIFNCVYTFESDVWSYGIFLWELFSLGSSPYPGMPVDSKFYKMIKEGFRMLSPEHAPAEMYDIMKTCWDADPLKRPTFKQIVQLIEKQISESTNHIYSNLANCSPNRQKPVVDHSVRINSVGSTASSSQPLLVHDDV
Method in brief: as §1

ZAP70 = molecular target: T4, ZAP70 (Homo sapiens, UniProt P43403)
T4 sequence (P43403 1-619): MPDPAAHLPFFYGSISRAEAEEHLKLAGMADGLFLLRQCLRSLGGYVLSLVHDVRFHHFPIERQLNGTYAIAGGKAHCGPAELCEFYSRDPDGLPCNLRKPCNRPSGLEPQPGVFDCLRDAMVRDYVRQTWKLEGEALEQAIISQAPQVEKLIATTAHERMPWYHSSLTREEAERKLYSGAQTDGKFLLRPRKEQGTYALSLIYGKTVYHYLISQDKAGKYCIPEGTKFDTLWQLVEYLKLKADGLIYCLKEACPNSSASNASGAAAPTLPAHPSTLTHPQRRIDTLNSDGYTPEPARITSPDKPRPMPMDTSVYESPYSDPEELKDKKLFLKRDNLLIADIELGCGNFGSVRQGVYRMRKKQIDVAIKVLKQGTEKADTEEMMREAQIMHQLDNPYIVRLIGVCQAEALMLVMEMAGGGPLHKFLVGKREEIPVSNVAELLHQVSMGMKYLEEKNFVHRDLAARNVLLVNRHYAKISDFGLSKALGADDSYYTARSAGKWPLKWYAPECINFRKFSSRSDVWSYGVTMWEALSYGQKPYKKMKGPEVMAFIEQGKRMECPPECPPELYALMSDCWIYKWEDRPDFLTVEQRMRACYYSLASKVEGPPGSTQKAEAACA
Method in brief: as §1

PDGFR-α = PDGFR-α (Homo sapiens, UniProt P16234)
PDGFR-α, sequence (P16234 24-1089): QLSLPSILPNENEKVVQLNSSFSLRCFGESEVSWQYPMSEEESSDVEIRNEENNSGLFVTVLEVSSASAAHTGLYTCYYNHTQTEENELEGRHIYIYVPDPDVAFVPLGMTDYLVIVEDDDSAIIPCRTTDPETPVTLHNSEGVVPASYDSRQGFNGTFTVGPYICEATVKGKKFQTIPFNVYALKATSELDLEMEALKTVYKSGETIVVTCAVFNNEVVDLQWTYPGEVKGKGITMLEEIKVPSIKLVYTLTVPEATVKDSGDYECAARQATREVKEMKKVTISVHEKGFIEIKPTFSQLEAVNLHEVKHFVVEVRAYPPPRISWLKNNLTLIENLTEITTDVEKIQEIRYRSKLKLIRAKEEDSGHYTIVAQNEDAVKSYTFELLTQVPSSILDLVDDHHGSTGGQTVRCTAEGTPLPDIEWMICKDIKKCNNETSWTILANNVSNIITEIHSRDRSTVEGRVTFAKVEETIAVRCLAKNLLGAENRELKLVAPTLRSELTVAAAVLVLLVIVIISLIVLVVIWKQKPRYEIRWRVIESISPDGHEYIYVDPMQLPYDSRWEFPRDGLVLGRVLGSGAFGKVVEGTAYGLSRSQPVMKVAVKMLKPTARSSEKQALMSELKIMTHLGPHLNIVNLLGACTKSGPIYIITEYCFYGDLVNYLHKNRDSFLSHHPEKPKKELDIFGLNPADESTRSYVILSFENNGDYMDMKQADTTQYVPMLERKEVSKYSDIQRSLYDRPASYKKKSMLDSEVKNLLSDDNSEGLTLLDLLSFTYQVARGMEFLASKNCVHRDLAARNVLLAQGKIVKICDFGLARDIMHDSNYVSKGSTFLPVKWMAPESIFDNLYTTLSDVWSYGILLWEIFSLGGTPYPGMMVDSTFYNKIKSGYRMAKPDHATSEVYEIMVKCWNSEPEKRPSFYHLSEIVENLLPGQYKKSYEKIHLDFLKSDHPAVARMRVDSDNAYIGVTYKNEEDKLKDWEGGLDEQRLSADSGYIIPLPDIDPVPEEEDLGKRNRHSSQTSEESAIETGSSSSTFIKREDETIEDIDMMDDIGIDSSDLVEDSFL
Method in brief: as §1

DYRK2 = molecular target: T5, DYRK2 (Homo sapiens, UniProt Q92630)
T5 sequence (Q92630 1-601): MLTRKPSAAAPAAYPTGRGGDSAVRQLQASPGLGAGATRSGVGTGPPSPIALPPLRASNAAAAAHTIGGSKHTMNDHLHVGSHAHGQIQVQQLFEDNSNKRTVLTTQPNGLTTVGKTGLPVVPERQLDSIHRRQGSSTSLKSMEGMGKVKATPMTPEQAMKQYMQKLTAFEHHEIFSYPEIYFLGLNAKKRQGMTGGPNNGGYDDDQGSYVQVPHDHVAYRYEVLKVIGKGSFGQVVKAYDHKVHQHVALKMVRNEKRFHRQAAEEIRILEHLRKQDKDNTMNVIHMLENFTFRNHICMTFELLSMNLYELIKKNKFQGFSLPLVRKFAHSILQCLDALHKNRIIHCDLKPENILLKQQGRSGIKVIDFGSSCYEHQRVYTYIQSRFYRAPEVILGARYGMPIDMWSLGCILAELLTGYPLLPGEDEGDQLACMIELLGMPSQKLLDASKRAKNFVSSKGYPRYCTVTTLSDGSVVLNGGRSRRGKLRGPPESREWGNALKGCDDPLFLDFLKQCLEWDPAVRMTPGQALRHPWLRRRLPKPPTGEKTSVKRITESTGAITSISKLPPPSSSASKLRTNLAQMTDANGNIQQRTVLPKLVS
Method in brief: as §1

BMX = molecular target: T6, BMX (Homo sapiens, UniProt P51813)
T6 sequence (P51813 1-675): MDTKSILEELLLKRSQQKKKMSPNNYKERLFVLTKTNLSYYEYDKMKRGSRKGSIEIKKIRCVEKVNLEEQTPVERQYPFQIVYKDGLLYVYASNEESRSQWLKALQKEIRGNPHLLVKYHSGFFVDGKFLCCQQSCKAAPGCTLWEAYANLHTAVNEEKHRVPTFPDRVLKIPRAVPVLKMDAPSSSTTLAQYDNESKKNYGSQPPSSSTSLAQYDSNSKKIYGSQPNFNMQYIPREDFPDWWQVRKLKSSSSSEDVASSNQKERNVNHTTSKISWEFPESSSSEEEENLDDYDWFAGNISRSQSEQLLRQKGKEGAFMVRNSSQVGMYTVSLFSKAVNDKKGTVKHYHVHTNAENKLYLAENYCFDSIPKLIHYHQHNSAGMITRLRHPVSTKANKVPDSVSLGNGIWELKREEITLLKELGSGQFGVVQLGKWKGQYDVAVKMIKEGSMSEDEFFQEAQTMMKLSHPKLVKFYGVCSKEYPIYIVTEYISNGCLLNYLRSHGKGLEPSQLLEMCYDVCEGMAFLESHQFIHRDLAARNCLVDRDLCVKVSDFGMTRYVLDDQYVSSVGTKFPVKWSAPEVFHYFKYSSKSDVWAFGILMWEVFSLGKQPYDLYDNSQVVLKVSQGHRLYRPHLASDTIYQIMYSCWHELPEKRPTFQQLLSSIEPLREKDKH
Method in brief: as §1

COc1ccc(-c2csc(N(CCCN3CCOCC3)C(=O)c3cc(Cl)sc3Cl)n2)cc1 [2,5-dichloro-N-(4-(4-methoxyphenyl)thiazol-2-yl)-N-(3-morpholinopropyl)thiophene-3-carboxamide]
Activity (CDK2): CDK2

COc1ccc(-c2csc(N(CCCN3CCN(C)CC3)C(=O)c3cccs3)n2)cc1 [N-(4-(4-methoxyphenyl)thiazol-2-yl)-N-(3-(4-methylpiperazin-1-yl)propyl)thiophene-2-carboxamide]
Activity (AKT1): AKT1
Activity (INSR): INSR

CCN(CC)c1ccc(-c2csc(N(CCCN3CCOCC3)C(=O)c3cccs3)n2)cc1 [N-(4-(4-(diethylamino)phenyl)thiazol-2-yl)-N-(3-morpholinopropyl)thiophene-2-carboxamide]
Activity (AKT1): AKT1
Activity (SYK): SYK

COc1ccc(-c2csc(N(CCCN3CCN(C)CC3)C(=O)c3ccco3)n2)cc1 [N-(4-(4-methoxyphenyl)thiazol-2-yl)-N-(3-(4-methylpiperazin-1-yl)propyl)furan-2-carboxamide]
Activity (AKT1): AKT1
Activity (MAPKAPK-2): MAPKAPK-2
Activity (CHEK2): CHEK2

COc1ccc(-c2csc(N(CCCN3CCOCC3)C(=O)c3ccc(C)cc3)n2)cc1 [N-(4-(4-methoxyphenyl)thiazol-2-yl)-4-methyl-N-(3-morpholinopropyl)benzamide]
Activity (FLT-3): FLT-3

COc1ccc(-c2csc(N(CCCN3CCOCC3)C(=O)c3sc(C)nc3C)n2)cc1 [N-(4-(4-methoxyphenyl)thiazol-2-yl)-2,4-dimethyl-N-(3-morpholinopropyl)thiazole-5-carboxamide]
Activity (PDK1): PDK1

COc1ccc(-c2csc(N(CCCN3CCOCC3)C(=O)c3cc(C)n(C)c3C)n2)cc1 [N-(4-(4-methoxyphenyl)thiazol-2-yl)-1,2,5-trimethyl-N-(3-morpholinopropyl)-1H-pyrrole-3-carboxamide]
Activity (CDK2/cyclin E): CDK2/cyclin E

O=C(c1cccs1)N(CCCN1CCOCC1)c1nc(-c2cccnc2)cs1 [N-(3-morpholinopropyl)-N-(4-(pyridin-3-yl)thiazol-2-yl)thiophene-2-carboxamide]
Activity (AKT1): AKT1
Activity (CDK2/cyclin E): CDK2/cyclin E

COc1ccc(-c2csc(N(CCCN3CCOCC3)C(=O)c3ccc([N+](=O)[O-])s3)n2)cc1 [N-(4-(4-methoxyphenyl)thiazol-2-yl)-N-(3-morpholinopropyl)-5-nitrothiophene-2-carboxamide]
Activity (FLT-3): FLT-3
Activity (KIT): KIT
Activity (ZAP70): ZAP70

COc1ccc(-c2csc(N(CCCN3CCOCC3)C(=O)c3snnc3C)n2)cc1 [N-(4-(4-methoxyphenyl)thiazol-2-yl)-4-methyl-N-(3-morpholinopropyl)-1,2,3-thiadiazole-5-carboxamide]
Activity (FLT-3): FLT-3
Activity (KIT): KIT
Activity (PDGFR-α): PDGFR-α
Activity (DYRK2): DYRK2
Activity (ZAP70): ZAP70

COc1ccc(-c2csc(N(CCCN3CCOCC3)C(=O)Cc3ccccc3Cl)n2)cc1 [2-(2-chlorophenyl)-N-(4-(4-methoxyphenyl)thiazol-2-yl)-N-(3-morpholinopropyl)acetamide]
Activity (BMX): BMX
